Test results taken from patent US10227298B2, “Solid forms of a pharmaceutically active compound” (Hoffmann-La Roche Inc., priority 2014, dated 2019).

Test: aqueous solubility of the crystalline forms
Type: physicochemical
Conditions: pH 1.5, aqueous buffer, in water at physiological pHs (pH1.5-8.0)

A solubility of less than 0.05 µg/mL was found for COc1cc(C(=O)O)ccc1NC(=O)[C@@H]1N[C@@H](CC(C)(C)C)[C@](C#N)(c2ccc(Cl)cc2F)[C@H]1c1cccc(Cl)c1F [Compound A, 4-{[(2R,3S,4R,5S)-4-(4-Chloro-2-fluoro-phenyl)-3-(3-chloro-2-fluoro-phenyl)-4-cyano-5-(2,2-dimethyl-propyl)-pyrrolidine-2-carbonyl]-amino}-3-methoxy-benzoic acid] in this work.
